{"source": "patent US20230338307A1", "about": "“PROPHYLACTIC AGENT, AMELIORATING AGENT, AND THERAPEUTIC AGENT FOR DRY EYE” (TSUBOTA LABORATORY, INC., priority 2020, published 2023)", "key": {"dry eye model [1]": {"tested_on": "dry eye model", "test": "Fluorescein staining score, dry eye model by 0.2% benzalkonium chloride instillation (Example 2)", "assay_type": "in vivo, mice", "settings": "0.003% (w/v) apocynin in PBS, 3 μL 4 times daily, two days after start; 0.2% benzalkonium chloride model; FIG. 4", "text": "After acclimating male C57BL6 mice ([…]) to the experimental environment, those with almost uniform weight values and no eye abnormalities were divided into the following 3 groups (n=3). • 7 weeks old/normal (non-dry eye group) • 7 weeks old/dry eye model+control (solvent eye drop) group • 7 weeks old/dry eye model+apocynin eye drop group The dry eye model was created by instilling a 0.2% benzalkonium chloride solution based on the method of Lin et al. (Non-patent Document 4). In this model, instillation of the 0.2% benzalkonium chloride solution causes dry eye symptoms such as shortened BUT, decreased tear volume, and corneal epithelial damage after 1 day of administration (Non-patent Document 4). After the benzalkonium chloride solution was instilled twice daily for 2 days, PBS alone was administered to the control group, and for the test group, a solution of apocynin 0.003% (w/v) suspended in PBS was administered to both eyes at 3 μL each, 4 times daily. Two days after the start of apocynin instillation, 1 μL of 0.1% fluorescein sodium solution was instilled into each of both eyes under isoflurane anesthesia, and stained images were taken under a blue filter using a slit lamp (Kowa Co., Ltd., SL-17). The fluorescein staining scores were analyzed (FIG. 4)."}, "dry eye model [2]": {"tested_on": "dry eye model", "test": "Fluorescein staining score (corneal epithelial damage), dry eye model by erlotinib instillation (Example 1)", "assay_type": "in vivo", "settings": "0.003% (w/v) apocynin eye drop twice daily, two weeks; erlotinib-instilled mice; FIG. 3", "text": "After acclimating male C57BL6 mice (7 weeks old) to the experimental environment, those with almost uniform body weight values and no eye abnormalities were divided into the following 3 groups (n=5). • 7 weeks old/normal (non-dry eye group) • 7 weeks old/dry eye model+control (solvent eye drop) group • 7 weeks old/dry eye model+apocynin eye drop group The dry eye model was created by daily instillation of an EGF receptor inhibitor (erlotinib) based on the method of Yang et al. In this model, administration of erlotinib causes dry eye symptoms such as shortened BUT, decreased tear volume, and corneal damage after 1 week of administration (Non-patent Document 3). After 20 μM of erlotinib was instilled for 2 weeks, the control group received PBS alone, and the test group received 3 μL of a suspension of 0.003% (w/v) apocynin in PBS twice daily. […] Under anesthesia, the tip of a Schirmer test paper cut to 1 mm width was inserted into the conjunctival sac of the lower eyelid of the mouse, the test paper was removed after 5 minutes, the length of the wetted part was read in units of 0.5 mm, and the value was used as the tear volume (FIG. 2). In the dry eye model prepared in Example 1, after BUT measurement, fluorescein-stained images were photographed under a blue filter using a slit lamp (Kowa Co., Ltd., SL-17), and corneal epithelial damage was analyzed (FIG. 3). […]"}, "dry eye model [3]": {"tested_on": "dry eye model", "test": "Tear film breakup time (BUT) test, dry eye model by erlotinib instillation (Example 1)", "assay_type": "in vivo", "settings": "0.003% (w/v) apocynin in PBS, 3 μL twice daily, two weeks after start of instillation; erlotinib-instilled C57BL6 mice; FIG. 1", "text": "After acclimating male C57BL6 mice (7 weeks old) to the experimental environment, those with almost uniform body weight values and no eye abnormalities were divided into the following 3 groups (n=5). • 7 weeks old/normal (non-dry eye group) • 7 weeks old/dry eye model+control (solvent eye drop) group • 7 weeks old/dry eye model+apocynin eye drop group The dry eye model was created by daily instillation of an EGF receptor inhibitor (erlotinib) based on the method of Yang et al. In this model, administration of erlotinib causes dry eye symptoms such as shortened BUT, decreased tear volume, and corneal damage after 1 week of administration (Non-patent Document 3). After 20 μM of erlotinib was instilled for 2 weeks, the control group received PBS alone, and the test group received 3 μL of a suspension of 0.003% (w/v) apocynin in PBS twice daily. Two weeks after the start of instillation, 1 μL of 0.1% sodium fluorescein solution was instilled into each of both eyes under isoflurane anesthesia, and a BUT test was performed using a slit lamp (Kowa Co., Ltd., SL-17) (FIG. 1). […] Under anesthesia, the tip of a Schirmer test paper cut to 1 mm width was inserted into the conjunctival sac of the lower eyelid of the mouse, the test paper was removed after 5 minutes, the length of the wetted part was read in units of 0.5 mm, and the value was used as the tear volume (FIG. 2)."}, "meibomian glands": {"tested_on": "meibomian glands", "test": "Meibomian gland silhouette and area, dry eye model by systemic erlotinib (Example 3)", "assay_type": "in vivo, mice", "settings": "0.003% (w/v) apocynin eye drop, 2 weeks after start of instillation", "protocol": "After acclimating male C57BL6 mice (7 weeks old) to the experimental environment, those with almost uniform body weight values and no eye abnormalities were divided into the following 3 groups (n=4). • 7 weeks old/normal (non-dry eye group) • 7 weeks old/dry eye model+control (solvent eye drop) group • 7 weeks old/dry eye model+apocynin eye drop group The dry eye model was prepared by dissolving erlotinib at a concentration of 5 mg/ml in 0.5% methylcellulose solution and administering it by intraperitoneal injection at a concentration of 50 mg/kg/day daily from the start of the study. The solvent 0.5% methylcellulose solution was similarly administered to the normal non-administration group. After one week of administration of erlotinib, the control group received PBS alone, and the test group received a solution of 0.003% (w/v) apocynin suspended in PBS twice a day at both eyes with 3 μL each. One week after the start of instillation, 1 μL of 0.1% sodium fluorescein solution was instilled into each of both eyes under isoflurane anesthesia, and the BUT test was performed under a blue filter using a slit lamp (Kowa Co., Ltd., SL-17) (FIG. 5). […] In addition, the image analysis software ImageJ was used to quantify the area of the meibomian gland silhouette image of the upper eyelid image (FIG. 7)."}}}
{"compound": "COc1cc(C(C)=O)ccc1O", "note": "[apocynin, 4-hydroxy-3-methoxyacetophenone]", "values": [{"measurement": "corneal epithelial damage (fluorescein staining score)", "setting": "dry eye model [1]", "result": "significantly improved"}, {"measurement": "corneal epithelial damage (fluorescein staining score)", "setting": "dry eye model [2]", "result": "significant improvement was observed"}, {"measurement": "tear film breakup time (BUT)", "setting": "dry eye model [3]", "result": "improved the shortening of BUT"}, {"measurement": "missing parts of meibomian glands (silhouette image of upper eyelid)", "setting": "meibomian glands; FIG. 7A", "result": "reduced the missing parts"}, {"measurement": "meibomian gland silhouette area (atrophy of the meibomian glands)", "setting": "meibomian glands; ImageJ, FIG. 7B", "result": "significantly inhibits atrophy of the meibomian glands"}]}
